These results are taken from paper PMC5218480 (PLoS ONE, 2017).

This assay relates to MV-4-11 cells. As to the kind of experiment: Gene expression microarray analysis (Affymetrix PrimeView) and GSEA. It is filed as cell-based, human. More on the design: RFU PODN (11730768_x_at) / Fold change /veh PODN (11730768_x_at) / RFU LINC00158 (11744669_a_at) / Fold change /veh LINC00158 (11744669_a_at) / RFU DUSP10 (11751237_a_at) / Fold change /veh DUSP10 (11751237_a_at) / RFU ID3 (11757404_x_at) / Fold change /veh ID3 (11757404_x_at) / RFU PLEKHG5 (11737974_s_at) / Fold change /veh PLEKHG5 (11737974_s_at) / RFU LRRC4B (11730491_at) / Fold change /veh LRRC4B (11730491_at) / RFU GIMAP4 (11747438_a_at) / Fold change /veh GIMAP4 (11747438_a_at) / RFU KRT8 (11758183_x_at) / Fold change /veh KRT8 (11758183_x_at) / RFU CNN1 (11734310_a_at) / Fold change /veh CNN1 (11734310_a_at) / RFU VPS37D (11726825_at) / Fold change /veh VPS37D (11726825_at) / RFU C10orf10 (11716522_x_at) / Fold change /veh C10orf10 (11716522_x_at) / RFU KIR2DL2 /// KIR2DL4 /// KIR2DL5A /// KIR2DL5B /// KIR2DS1 /// KIR2DS2 /// KIR2DS3 /// KIR2DS4 /// KIR3DL3 /// KIR3DL3 /// KIR3DS1 (11738374_at) / Fold change /veh KIR2DL2 /// KIR2DL4 /// KIR2DL5A /// KIR2DL5B /// KIR2DS1 /// KIR2DS2 /// KIR2DS3 /// KIR2DS4 /// KIR3DL3 /// KIR3DL3 /// KIR3DS1 (11738374_at) / RFU C1QL1 (11718748_at) / Fold change /veh C1QL1 (11718748_at) / RFU TMPRSS4 (11747572_a_at) / Fold change /veh TMPRSS4 (11747572_a_at) / RFU HAMP (11756126_x_at) / Fold change /veh HAMP (11756126_x_at) / RFU RNFT2 (11725882_a_at) / Fold change /veh RNFT2 (11725882_a_at) / RFU NR4A2 (11747474_a_at) / Fold change /veh NR4A2 (11747474_a_at) / RFU ABCC12 (11746883_a_at) / Fold change /veh ABCC12 (11746883_a_at) / RFU TMEM136 (11760407_x_at) / Fold change /veh TMEM136 (11760407_x_at) / RFU CLDN22 /// WWC2 (11732394_at) / Fold change /veh CLDN22 /// WWC2 (11732394_at) / RFU HLA-DPB1 (11760878_x_at) / Fold change /veh HLA-DPB1 (11760878_x_at) / RFU SPINT1 (11716480_a_at) / Fold change /veh SPINT1 (11716480_a_at) / RFU GAP43 (11754022_s_at) / Fold change /veh GAP43 (11754022_s_at) / RFU A4GNT (11735810_at) / Fold change /veh A4GNT (11735810_at) / RFU PRB3 (11715151_x_at) / Fold change /veh PRB3 (11715151_x_at) / RFU TUBB4B (11761932_at) / Fold change /veh TUBB4B (11761932_at) / RFU CAPN14 (11732068_a_at) / Fold change /veh CAPN14 (11732068_a_at) / RFU TMCC2 (11721928_a_at) / Fold change /veh TMCC2 (11721928_a_at) / RFU IRGQ (11745062_a_at) / Fold change /veh IRGQ (11745062_a_at) / RFU FAM174B (11720279_a_at) / Fold change /veh FAM174B (11720279_a_at) / RFU TMPRSS4 (11748680_a_at) / Fold change /veh TMPRSS4 (11748680_a_at) / RFU FAM212B (11763350_a_at) / Fold change /veh FAM212B (11763350_a_at) / RFU PLEKHG5 (11743358_a_at) / Fold change /veh PLEKHG5 (11743358_a_at) / RFU ZSCAN30 (11745921_a_at) / Fold change /veh ZSCAN30 (11745921_a_at) / RFU CMKLR1 (11741424_a_at) / Fold change /veh CMKLR1 (11741424_a_at) / RFU LOC101060620 /// MAPK8IP1 (11723275_at) / Fold change /veh LOC101060620 /// MAPK8IP1 (11723275_at) / RFU SPTSSB (11747773_x_at) / Fold change /veh SPTSSB (11747773_x_at) / RFU PRSS12 (11739890_at) / Fold change /veh PRSS12 (11739890_at) / RFU BIN1 (11741810_x_at) / Fold change /veh BIN1 (11741810_x_at) / RFU WNT11 (11732464_a_at) / Fold change /veh WNT11 (11732464_a_at) / RFU C10orf10 (11716521_a_at) / Fold change /veh C10orf10 (11716521_a_at) / RFU C5orf56 (11738089_at) / Fold change /veh C5orf56 (11738089_at) / RFU CYB561 (11721691_x_at) / Fold change /veh CYB561 (11721691_x_at) / RFU ANKRD19P (11752326_a_at) / Fold change /veh ANKRD19P (11752326_a_at) / RFU OR2T12 /// OR2T33 /// OR2T8 (11738714_s_at) / Fold change /veh OR2T12 /// OR2T33 /// OR2T8 (11738714_s_at) / RFU VCAN (11748164_a_at) / Fold change /veh VCAN (11748164_a_at) / RFU JSRP1 (11732532_at) / Fold change /veh JSRP1 (11732532_at) / RFU KRTAP10-11 (11738290_x_at) / Fold change /veh KRTAP10-11 (11738290_x_at) / RFU MYO3A (11730013_a_at) / Fold change /veh MYO3A (11730013_a_at) / RFU EBF3 (11725865_a_at) / Fold change /veh EBF3 (11725865_a_at) / RFU CAMK2N1 (11719241_x_at) / Fold change /veh CAMK2N1 (11719241_x_at) / RFU C5orf56 (11738088_a_at) / Fold change /veh C5orf56 (11738088_a_at) / RFU OLFML3 (11715873_a_at) / Fold change /veh OLFML3 (11715873_a_at) / RFU LOC100653217 /// NTM (11731650_a_at) / Fold change /veh LOC100653217 /// NTM (11731650_a_at) / RFU MAPK11 (11762145_a_at) / Fold change /veh MAPK11 (11762145_a_at) / RFU FIZ1 (11724087_x_at) / Fold change /veh FIZ1 (11724087_x_at) / RFU OASL (11726364_x_at) / Fold change /veh OASL (11726364_x_at) / RFU SOX15 (11748057_x_at) / Fold change /veh SOX15 (11748057_x_at) / RFU CD79A (11719716_a_at) / Fold change /veh CD79A (11719716_a_at) / RFU HIST1H1D (11736915_at) / Fold change /veh HIST1H1D (11736915_at) / RFU CASKIN2 (11723855_a_at) / Fold change /veh CASKIN2 (11723855_a_at) / RFU LOC730098 (11760151_x_at) / Fold change /veh LOC730098 (11760151_x_at) / RFU OR4N2 (11742367_at) / Fold change /veh OR4N2 (11742367_at) / RFU PRRT2 (11749266_a_at) / Fold change /veh PRRT2 (11749266_a_at) / RFU SNX32 (11753110_a_at) / Fold change /veh SNX32 (11753110_a_at) / RFU CDHR5 (11726645_a_at) / Fold change /veh CDHR5 (11726645_a_at) / RFU RCAN1 (11760418_a_at) / Fold change /veh RCAN1 (11760418_a_at) / RFU FAM167A (11723789_a_at) / Fold change /veh FAM167A (11723789_a_at) / RFU FAM26E (11764081_at) / Fold change /veh FAM26E (11764081_at) / RFU ISYNA1 (11749810_s_at) / Fold change /veh ISYNA1 (11749810_s_at) / RFU ACY1 (11761880_at) / Fold change /veh ACY1 (11761880_at) / RFU 11764098_at / Fold change /veh 11764098_at / RFU SAMD14 (11745864_x_at) / Fold change /veh SAMD14 (11745864_x_at) / RFU NPB (11741838_a_at) / Fold change /veh NPB (11741838_a_at) / RFU TMPRSS6 (11731388_a_at) / Fold change /veh TMPRSS6 (11731388_a_at) / RFU KRTAP10-2 (11738614_at) / Fold change /veh KRTAP10-2 (11738614_at) / RFU ARHGAP8 /// PRR5-ARHGAP8 (11727945_x_at) / Fold change /veh ARHGAP8 /// PRR5-ARHGAP8 (11727945_x_at) / RFU KRTAP5-7 /// NADSYN1 (11734609_at) / Fold change /veh KRTAP5-7 /// NADSYN1 (11734609_at) / RFU RASL12 (11751679_a_at) / Fold change /veh RASL12 (11751679_a_at) / RFU CDKN2B (11736163_a_at) / Fold change /veh CDKN2B (11736163_a_at) / RFU PRF1 (11729649_at) / Fold change /veh PRF1 (11729649_at) / RFU, ZNF638 /// ZNF638-IT1 / Fold change vs veh, ZNF638 /// ZNF638-IT1 / RFU, PANK3 / Fold change vs veh, PANK3 / RFU, SH3YL1 / Fold change vs veh, SH3YL1 / RFU, ZEB2 / Fold change vs veh, ZEB2 / RFU, NRIP1 / Fold change vs veh, NRIP1 / RFU, PTTG1IP / Fold change vs veh, PTTG1IP / RFU, CAPN2 / Fold change vs veh, CAPN2 / RFU, MED14 / Fold change vs veh, MED14 / RFU, SNORA58 / Fold change vs veh, SNORA58 / RFU, C1orf63 / Fold change vs veh, C1orf63 / RFU, LRRFIP1 / Fold change vs veh, LRRFIP1 / RFU, NDUFAF7 / Fold change vs veh, NDUFAF7 / RFU, SLC12A2 / Fold change vs veh, SLC12A2 / RFU, IBTK / Fold change vs veh, IBTK / RFU, ESF1 / Fold change vs veh, ESF1 / Fold change vs veh, TMEM50B / RFU, TAOK1 / Fold change vs veh, TAOK1 / RFU, ACBD3 / Fold change vs veh, ACBD3 / RFU, TMA16 / Fold change vs veh, TMA16 / RFU, RWDD3 / Fold change vs veh, RWDD3 / RFU, BCAT1 / Fold change vs veh, BCAT1 / RFU, EDEM3 / Fold change vs veh, EDEM3 / RFU, TMEM33 / Fold change vs veh, TMEM33 / RFU, WDR75 / Fold change vs veh, WDR75 / RFU, AHCTF1 / Fold change vs veh, AHCTF1 / RFU, TFRC / Fold change vs veh, TFRC / RFU, ZDHHC17 / Fold change vs veh, ZDHHC17 / RFU, NOM1 / Fold change vs veh, NOM1 / RFU, ARL8B / Fold change vs veh, ARL8B / RFU, ZBTB11 / Fold change vs veh, ZBTB11 / RFU, TAMM41 / Fold change vs veh, TAMM41 / RFU, KIAA1704 /// LOC100996395 / Fold change vs veh, KIAA1704 /// LOC100996395 / RFU, ING1 / Fold change vs veh, ING1 / RFU, TRMT61B / Fold change vs veh, TRMT61B / RFU, FUBP3 / Fold change vs veh, FUBP3 / RFU, TP53 / Fold change vs veh, TP53 / RFU, TNKS2 / Fold change vs veh, TNKS2 / RFU, ZFP14 / Fold change vs veh, ZFP14 / RFU, ACTR2 / Fold change vs veh, ACTR2 / RFU, PPP3R1 / Fold change vs veh, PPP3R1 / RFU, PIK3R1 / Fold change vs veh, PIK3R1 / RFU, HNRNPA1 / Fold change vs veh, HNRNPA1 / RFU, RNF170 / Fold change vs veh, RNF170 / RFU, ZNF28 / Fold change vs veh, ZNF28 / RFU, RNGTT / Fold change vs veh, RNGTT / RFU, OGT / Fold change vs veh, OGT / RFU, BRD1 / Fold change vs veh, BRD1 / RFU, MARS / Fold change vs veh, MARS / RFU, ZNF655 / Fold change vs veh, ZNF655 / RFU, FAHD1 / Fold change vs veh, FAHD1 / RFU, BDP1 / Fold change vs veh, BDP1 / RFU, LRRCC1 / Fold change vs veh, LRRCC1 / RFU, ARID1A / Fold change vs veh, ARID1A / RFU, ZNF146 / Fold change vs veh, ZNF146 / RFU, ZNF330 / Fold change vs veh, ZNF330 / RFU, GPN3 / Fold change vs veh, GPN3 / RFU, C9orf123 / Fold change vs veh, C9orf123 / RFU, N4BP2L2 / Fold change vs veh, N4BP2L2 / RFU, ARFIP1 / Fold change vs veh, ARFIP1 / RFU, FAM179B / Fold change vs veh, FAM179B / RFU, BCL10 / Fold change vs veh, BCL10 / RFU, UHRF1BP1L / Fold change vs veh, UHRF1BP1L / RFU, BET1 / Fold change vs veh, BET1 / RFU, CNOT2 / Fold change vs veh, CNOT2 / RFU, ZNF268 / Fold change vs veh, ZNF268 / Fold change vs veh, ZNF507 / RFU, DGCR2 / Fold change vs veh, DGCR2 / RFU, WDSUB1 / Fold change vs veh, WDSUB1 / Fold change vs veh, HSP90B1 /// MIR3652 / RFU, ADSS / Fold change vs veh, ADSS / RFU, GK / Fold change vs veh, GK / RFU, ZNF148 / Fold change vs veh, ZNF148 / RFU, TAF9 / Fold change vs veh, TAF9 / RFU, SLC1A5 / Fold change vs veh, SLC1A5 / RFU, SLMO2 / Fold change vs veh, SLMO2 / RFU, ABCC4 / Fold change vs veh, ABCC4 / RFU, LOC101060439 /// RAP1B / Fold change vs veh, LOC101060439 /// RAP1B / RFU, RFX7 / Fold change vs veh, RFX7 / RFU, GTPBP10 / Fold change vs veh, GTPBP10 / RFU, CNEP1R1 / Fold change vs veh, CNEP1R1 / RFU, BIVM-ERCC5 /// ERCC5 / Fold change vs veh, BIVM-ERCC5 /// ERCC5 / RFU, ILF3 / Fold change vs veh, ILF3 / RFU 11762660_at / Fold change /veh 11762660_at / RFU VCAN (11757783_s_at) / Fold change /veh VCAN (11757783_s_at) / RFU DDX43 (11728927_at) / Fold change /veh DDX43 (11728927_at) / RFU KRT8 (11758188_x_at) / Fold change /veh KRT8 (11758188_x_at) / RFU NKD1 (11759106_at) / Fold change /veh NKD1 (11759106_at) / RFU SRD5A1 (11742802_a_at) / Fold change /veh SRD5A1 (11742802_a_at) / RFU TPSAB1 /// TPSB2 (11721975_s_at) / Fold change /veh TPSAB1 /// TPSB2 (11721975_s_at) / RFU GSTM3 (11746129_a_at) / Fold change /veh GSTM3 (11746129_a_at) / RFU IL23R (11737362_x_at) / Fold change /veh IL23R (11737362_x_at) / RFU TMEM51 (11727254_a_at) / Fold change /veh TMEM51 (11727254_a_at) / RFU PIWIL2 (11732686_x_at) / Fold change /veh PIWIL2 (11732686_x_at) / RFU ORM1 (11744905_x_at) / Fold change /veh ORM1 (11744905_x_at) / RFU CCDC152 (11743942_at) / Fold change /veh CCDC152 (11743942_at) / RFU ECM1 (11717891_a_at) / Fold change /veh ECM1 (11717891_a_at) / RFU IL23R (11748794_a_at) / Fold change /veh IL23R (11748794_a_at) / RFU TNFAIP8L3 (11732012_x_at) / Fold change /veh TNFAIP8L3 (11732012_x_at) / RFU MBOAT4 (11741988_at) / Fold change /veh MBOAT4 (11741988_at) / RFU 11764193_at / Fold change /veh 11764193_at / RFU TMEM53 (11763286_at) / Fold change /veh TMEM53 (11763286_at) / RFU MAGEB2 (11727129_at) / Fold change /veh MAGEB2 (11727129_at) / RFU TMEM200A (11744735_a_at) / Fold change /veh TMEM200A (11744735_a_at) / RFU CCDC152 (11751479_a_at) / Fold change /veh CCDC152 (11751479_a_at) / RFU FAM211A (11726209_a_at) / Fold change /veh FAM211A (11726209_a_at) / RFU RGS16 (11746705_a_at) / Fold change /veh RGS16 (11746705_a_at) / RFU VCAN (11755009_s_at) / Fold change /veh VCAN (11755009_s_at) / RFU RHOB (11743442_s_at) / Fold change /veh RHOB (11743442_s_at) / RFU RGS16 (11720943_a_at) / Fold change /veh RGS16 (11720943_a_at) / RFU RGS16 (11720944_at) / Fold change /veh RGS16 (11720944_at) / RFU, VPS4B / Fold change vs veh, VPS4B / RFU, CREB1 / Fold change vs veh, CREB1 / RFU, DNAJC13 / Fold change vs veh, DNAJC13 / RFU, GNAQ / Fold change vs veh, GNAQ / RFU, CDK5R1 / Fold change vs veh, CDK5R1 / RFU, ZRANB3 / Fold change vs veh, ZRANB3 / RFU, CUL4A / Fold change vs veh, CUL4A / RFU, CCNY / Fold change vs veh, CCNY / RFU, UFL1 / Fold change vs veh, UFL1 / RFU, COG3 / Fold change vs veh, COG3 / RFU, DIAPH2 / Fold change vs veh, DIAPH2 / RFU, SKA2 / Fold change vs veh, SKA2 / RFU, AFF3 / Fold change vs veh, AFF3 / RFU, LMF1 / Fold change vs veh, LMF1 / RFU, IPO11 / Fold change vs veh, IPO11 / RFU, DFFB / Fold change vs veh, DFFB / RFU, FOXP1 / Fold change vs veh, FOXP1 / RFU, CARD8 / Fold change vs veh, CARD8 / RFU, STRN3 / Fold change vs veh, STRN3 / RFU, ADK / Fold change vs veh, ADK / RFU, RASSF2 / Fold change vs veh, RASSF2 / RFU, WIPF1 / Fold change vs veh, WIPF1 / RFU, LARP1B / Fold change vs veh, LARP1B / RFU, RASA1 / Fold change vs veh, RASA1 / RFU, RB1 / Fold change vs veh, RB1 / RFU, PPFIA1 / Fold change vs veh, PPFIA1 / RFU, MAT2A / Fold change vs veh, MAT2A / RFU, CCT5 / Fold change vs veh, CCT5 / RFU, WDR92 / Fold change vs veh, WDR92 / RFU, CUX1 / Fold change vs veh, CUX1 / RFU, TTC7A / Fold change vs veh, TTC7A / RFU, TMEM135 / Fold change vs veh, TMEM135 / RFU, DEPTOR / Fold change vs veh, DEPTOR / RFU, CPM / Fold change vs veh, CPM / RFU, DNAJB6 / Fold change vs veh, DNAJB6 / RFU, CACNA2D3 / Fold change vs veh, CACNA2D3 / RFU, DTX4 / Fold change vs veh, DTX4 / RFU, TFCP2 / Fold change vs veh, TFCP2 / RFU, GMCL1 /// GMCL1P1 / Fold change vs veh, GMCL1 /// GMCL1P1 / RFU, AEBP2 / Fold change vs veh, AEBP2 / RFU, SNHG1 /// SNORD22 /// SNORD25 /// SNORD26 /// SNORD27 /// SNORD28 /// SNORD29 /// SNORD31 / Fold change vs veh, SNHG1 /// SNORD22 /// SNORD25 /// SNORD26 /// SNORD27 /// SNORD28 /// SNORD29 /// SNORD31 / Fold change (Aza/veh), C12orf56 (ProbeSet 11735607_a_at) / Fold change (ACY-1035/veh), C12orf56 (ProbeSet 11735607_a_at) / Fold change (Aza/veh), FGFR1OP (ProbeSet 11751329_s_at) / Fold change (ACY-1035/veh), FGFR1OP (ProbeSet 11751329_s_at) / Fold change (Aza/veh), VPS36 (ProbeSet 11739960_a_at) / Fold change (ACY-1035/veh), VPS36 (ProbeSet 11739960_a_at) / RFU SYPL1 (11715823_x_at) / Fold change /veh SYPL1 (11715823_x_at) / RFU IGFBP7 (11715501_s_at) / Fold change /veh IGFBP7 (11715501_s_at) / RFU REEP3 (11722064_at) / Fold change /veh REEP3 (11722064_at) / RFU IGLL1 (11728026_x_at) / Fold change /veh IGLL1 (11728026_x_at): dose or concentration left out as unconfirmed. The note with it: MV-4-11 cells, 48 hours.

Each structure is given as a SMILES string.

For `Nc1ncn([C@@H]2O[C@H](CO)[C@@H](O)[C@H]2O)c(=O)n1` [azacitidine], the “Fold change /veh RNFT2 (11725882_a_at)” value is 1.12.
